Results as given in publication PMC9468011 (Nature Communications, 2022).
pKd: −log10 of the molar value.

Biological target: T1, G-Flamp1 (cpGFP inserted into mlCNBD of the MlotiK1 channel) (Mesorhizobium japonicum, UniProt Q98GN8, P285N/S308V)
T1 construct: gene mll3241; GFP D173G plus Citrine/sfGFP mutations) inserted between residues 285 and 286; N-terminal RSET 6xHis tag kept for Kd; tag-free (SUMO cut) for crystal; E. coli; monomer
T1 sequence (Q98GN8 213-355 P285N/S308V): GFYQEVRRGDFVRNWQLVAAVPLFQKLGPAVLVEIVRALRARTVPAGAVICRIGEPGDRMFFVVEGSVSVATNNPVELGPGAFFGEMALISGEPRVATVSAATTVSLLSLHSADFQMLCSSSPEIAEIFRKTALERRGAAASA
Experiment: fluorescence titration of purified sensor (ex […] nm), sigmoidal fit
Format: binding

## Nc1nc2c(ncn2[C@@H]2O[C@@H]3COP(=O)(O)O[C@H]3[C@H]2O)c(=O)[nH]1 [cGMP]
  pKd: 4.52
